Test results from publication PMC7797070 (Nucleic Acids Research, 2020).
Blank lines part the entries; values can stand above or below the molecule they belong to.

Key:
[1] = target: T1, E. coli RelA (full-length) (Escherichia coli, UniProt P0AG20); experiment: 3H-; assay type: biochemical; conditions: labelled compound; 1 mM ATP; 100 μM ppGpp or pppGpp added; 37 °C
T1 sequence (P0AG20 1-744): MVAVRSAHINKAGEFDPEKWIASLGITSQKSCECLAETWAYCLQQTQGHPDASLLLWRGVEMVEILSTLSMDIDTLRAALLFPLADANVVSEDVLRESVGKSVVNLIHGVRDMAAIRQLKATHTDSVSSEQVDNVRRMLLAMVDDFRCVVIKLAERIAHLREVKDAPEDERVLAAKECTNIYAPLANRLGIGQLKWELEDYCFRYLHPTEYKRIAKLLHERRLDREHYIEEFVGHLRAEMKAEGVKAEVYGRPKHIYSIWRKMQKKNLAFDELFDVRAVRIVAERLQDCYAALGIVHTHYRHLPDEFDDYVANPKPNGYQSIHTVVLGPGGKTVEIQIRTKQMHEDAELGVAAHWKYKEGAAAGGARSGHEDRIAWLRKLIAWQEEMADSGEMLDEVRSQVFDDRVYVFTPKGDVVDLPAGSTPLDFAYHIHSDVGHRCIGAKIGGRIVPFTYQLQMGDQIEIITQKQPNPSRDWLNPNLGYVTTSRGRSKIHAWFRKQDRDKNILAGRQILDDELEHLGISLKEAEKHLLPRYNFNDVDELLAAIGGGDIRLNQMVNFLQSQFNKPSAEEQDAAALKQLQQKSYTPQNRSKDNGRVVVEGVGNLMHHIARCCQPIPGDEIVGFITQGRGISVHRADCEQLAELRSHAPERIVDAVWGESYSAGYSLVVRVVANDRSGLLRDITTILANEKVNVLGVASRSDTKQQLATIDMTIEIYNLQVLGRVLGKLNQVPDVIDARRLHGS

[2] = target: B. subtilis Rel (full-length) (Bacillus subtilis, UniProt O54408); experiment: 3H-; assay type: biochemical; conditions: 0.3 mM labelled compound; 1 mM ATP; 5 mM Mg2+; pH 7.5, 37 °C
B. subtilis Rel (full-length), sequence (O54408 whole entry): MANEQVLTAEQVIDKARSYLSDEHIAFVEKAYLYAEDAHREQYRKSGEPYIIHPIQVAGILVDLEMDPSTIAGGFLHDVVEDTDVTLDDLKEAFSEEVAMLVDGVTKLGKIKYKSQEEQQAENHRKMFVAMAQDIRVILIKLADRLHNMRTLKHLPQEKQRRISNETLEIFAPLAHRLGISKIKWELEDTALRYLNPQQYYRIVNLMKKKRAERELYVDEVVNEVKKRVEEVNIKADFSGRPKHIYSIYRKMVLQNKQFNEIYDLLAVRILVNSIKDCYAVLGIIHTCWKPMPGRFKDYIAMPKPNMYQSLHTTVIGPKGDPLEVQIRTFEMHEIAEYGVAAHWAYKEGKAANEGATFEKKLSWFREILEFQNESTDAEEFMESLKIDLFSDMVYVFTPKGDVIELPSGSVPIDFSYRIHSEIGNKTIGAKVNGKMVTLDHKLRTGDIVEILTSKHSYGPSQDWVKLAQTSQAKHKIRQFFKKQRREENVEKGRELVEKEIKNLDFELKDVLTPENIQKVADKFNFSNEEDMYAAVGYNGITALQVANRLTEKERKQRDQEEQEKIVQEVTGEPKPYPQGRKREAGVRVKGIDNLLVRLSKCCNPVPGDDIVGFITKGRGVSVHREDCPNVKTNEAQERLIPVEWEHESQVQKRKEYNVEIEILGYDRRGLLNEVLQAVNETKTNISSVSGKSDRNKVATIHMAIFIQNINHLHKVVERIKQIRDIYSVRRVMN

[3] = target: T2, RelA^NTD (E. coli RelA NTD, 1-385) (Escherichia coli, UniProt P0AG20); experiment: isothermal titration calorimetry; assay type: binding
T2 sequence (P0AG20 1-385): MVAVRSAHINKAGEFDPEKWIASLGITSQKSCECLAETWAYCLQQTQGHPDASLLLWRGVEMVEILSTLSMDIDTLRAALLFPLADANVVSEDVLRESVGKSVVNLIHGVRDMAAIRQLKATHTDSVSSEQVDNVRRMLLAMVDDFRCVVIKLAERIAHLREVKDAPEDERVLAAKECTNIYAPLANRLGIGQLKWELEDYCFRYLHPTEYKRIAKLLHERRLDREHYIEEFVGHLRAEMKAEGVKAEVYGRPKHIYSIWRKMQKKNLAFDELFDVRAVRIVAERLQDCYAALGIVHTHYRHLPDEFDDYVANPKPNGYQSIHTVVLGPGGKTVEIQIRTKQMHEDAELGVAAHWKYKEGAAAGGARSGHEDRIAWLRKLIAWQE

[4] = target: Rel^NTD (B. subtilis Rel NTD, 1-373) (Bacillus subtilis, UniProt O54408); experiment: isothermal titration calorimetry; assay type: binding
Rel^NTD (B. subtilis Rel NTD, 1-373), sequence (O54408 1-373): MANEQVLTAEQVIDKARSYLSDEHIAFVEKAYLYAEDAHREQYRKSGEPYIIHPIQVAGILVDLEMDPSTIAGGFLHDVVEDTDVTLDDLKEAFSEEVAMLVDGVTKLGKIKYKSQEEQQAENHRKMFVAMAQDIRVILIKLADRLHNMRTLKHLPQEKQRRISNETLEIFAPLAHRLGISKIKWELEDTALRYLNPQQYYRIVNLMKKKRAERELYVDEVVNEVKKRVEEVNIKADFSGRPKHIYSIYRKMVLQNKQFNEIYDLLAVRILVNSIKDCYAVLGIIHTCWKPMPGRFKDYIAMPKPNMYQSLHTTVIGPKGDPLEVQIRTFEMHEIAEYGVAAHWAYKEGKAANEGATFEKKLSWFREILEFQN

SMILES: Nc1nc2c(ncn2[C@@H]2O[C@H](COP(=O)(O)OP(=O)(O)O)[C@@H](O)[C@H]2O)c(=O)[nH]1 [GDP]
3H-(p)ppGpp synthesis assay, TLC and scintillation counting [1]: the ppGpp alarmone is produced in situ from 3H-GDP

SMILES: Nc1nc2c(ncn2[C@@H]2O[C@H](COP(=O)(O)OP(=O)(O)OP(=O)(O)O)[C@@H](O)[C@H]2O)c(=O)[nH]1 [GTP]
3H-(p)ppGpp synthesis assay, TLC and scintillation counting [2]: B. subtilis Rel is moderately more efficient in converting GTP to pppGpp

Kd [3]: 6.9 ± 0.9 µM | Kd [4]: 10.6 ± 0.9 µM
SMILES: Nc1nc2c(ncn2[C@@H]2O[C@H](COP(=O)(O)OP(=O)(O)OP(=O)(O)O)[C@@H](OP(=O)(O)OP(=O)(O)O)[C@H]2O)c(=O)[nH]1 [pppGpp]
